Experimental data taken from publication PMC7044277 (Nature Communications, 2020).
Values joined by “and” are separate entries in the source; they are usually repeats but may differ in a detail not shown here. Equal entries are not always repeated.

Assays:
Assay type in all cases: cell-based
320 non-olfactory GPCRs [1] = target: T1, 320 non-olfactory GPCRs (Homo sapiens, UniProt P46663)
T1 construct: expressed in transfected cells; host or cells: HTLA cells

320 non-olfactory GPCRs [2] = target: T2, 320 non-olfactory GPCRs (Homo sapiens, UniProt P47871)
T2 construct: expressed in transfected cells; host or cells: HTLA cells

320 non-olfactory GPCRs [3] = target: 320 non-olfactory GPCRs (Homo sapiens, UniProt P14416)
320 non-olfactory GPCRs [4] = target: T3, 320 non-olfactory GPCRs (Homo sapiens, UniProt P25116)
T3 construct: expressed in transfected cells; host or cells: HTLA cells
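Further: compound tested at 1 µM final concentration.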

Chain of 320 non-olfactory GPCRs (Homo sapiens, UniProt P14416) (P14416 whole entry): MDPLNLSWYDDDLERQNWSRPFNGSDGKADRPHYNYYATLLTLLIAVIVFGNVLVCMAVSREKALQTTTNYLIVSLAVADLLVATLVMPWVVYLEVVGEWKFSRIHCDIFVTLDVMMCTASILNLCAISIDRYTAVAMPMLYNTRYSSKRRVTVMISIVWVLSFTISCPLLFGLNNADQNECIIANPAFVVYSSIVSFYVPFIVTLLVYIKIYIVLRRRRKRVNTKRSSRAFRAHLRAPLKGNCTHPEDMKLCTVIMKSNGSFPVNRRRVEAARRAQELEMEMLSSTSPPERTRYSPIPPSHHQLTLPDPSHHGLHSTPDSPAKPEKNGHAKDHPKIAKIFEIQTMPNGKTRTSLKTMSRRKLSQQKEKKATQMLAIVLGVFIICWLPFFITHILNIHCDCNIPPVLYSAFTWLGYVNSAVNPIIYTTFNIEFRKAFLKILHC
T1 sequence (P46663 whole entry): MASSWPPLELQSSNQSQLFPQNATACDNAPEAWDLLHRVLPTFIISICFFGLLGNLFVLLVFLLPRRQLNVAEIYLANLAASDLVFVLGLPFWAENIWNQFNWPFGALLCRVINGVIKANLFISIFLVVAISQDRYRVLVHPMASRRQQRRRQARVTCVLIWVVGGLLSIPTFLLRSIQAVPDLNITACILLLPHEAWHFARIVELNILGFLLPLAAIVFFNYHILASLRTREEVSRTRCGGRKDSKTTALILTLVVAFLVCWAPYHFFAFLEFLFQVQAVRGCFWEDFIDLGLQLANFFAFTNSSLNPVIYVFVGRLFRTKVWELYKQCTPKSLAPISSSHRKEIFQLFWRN
T3 sequence (P25116 22-425): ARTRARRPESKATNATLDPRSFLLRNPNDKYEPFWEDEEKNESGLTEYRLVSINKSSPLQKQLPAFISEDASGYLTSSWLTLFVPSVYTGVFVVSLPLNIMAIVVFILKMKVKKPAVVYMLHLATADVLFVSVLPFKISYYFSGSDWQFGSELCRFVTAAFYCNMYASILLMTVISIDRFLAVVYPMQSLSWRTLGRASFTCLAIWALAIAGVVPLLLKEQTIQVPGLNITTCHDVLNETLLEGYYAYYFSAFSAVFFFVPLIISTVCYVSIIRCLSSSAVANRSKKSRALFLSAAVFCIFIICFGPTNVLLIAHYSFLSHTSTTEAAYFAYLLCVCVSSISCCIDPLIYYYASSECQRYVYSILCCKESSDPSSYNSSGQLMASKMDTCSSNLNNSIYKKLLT
T2 sequence (P47871 26-477): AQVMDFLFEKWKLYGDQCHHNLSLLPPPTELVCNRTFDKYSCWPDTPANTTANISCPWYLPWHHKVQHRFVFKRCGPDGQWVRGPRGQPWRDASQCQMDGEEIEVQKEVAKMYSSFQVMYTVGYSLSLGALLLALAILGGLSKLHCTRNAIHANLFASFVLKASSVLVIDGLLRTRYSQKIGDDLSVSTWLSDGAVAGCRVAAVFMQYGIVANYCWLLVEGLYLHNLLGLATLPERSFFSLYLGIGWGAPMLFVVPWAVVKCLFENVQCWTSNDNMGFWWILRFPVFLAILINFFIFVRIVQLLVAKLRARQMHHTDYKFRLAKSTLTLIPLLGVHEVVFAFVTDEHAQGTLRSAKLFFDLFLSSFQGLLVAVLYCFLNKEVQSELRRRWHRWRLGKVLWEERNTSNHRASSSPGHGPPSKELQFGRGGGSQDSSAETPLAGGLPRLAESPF

## CCOc1cccc2cc(C(C)NCC3(O)CCCCC3)oc12 (stereo not shown) [O4LE6]
320 non-olfactory GPCRs [1]
  Fold of Basal: 0.6703 and 0.866 and 0.6219 and 0.6427
320 non-olfactory GPCRs [2]
  Fold of Basal: 1.104 and 0.7209 and 1.128 and 1.0533
320 non-olfactory GPCRs [3]
  Fold of Basal: 84.6178 and 80.3873 and 78.6628 and 75.3887
320 non-olfactory GPCRs [4]
  Fold of Basal: 0.906 and 0.8507 and 1.071 and 1.142
